In US11512090B2, “Muscarinic acetylcholine M1 receptor antagonists” (PIPELINE THERAPEUTICS, INC., priority 2018, dated 2022) one finds IC50 data, which are given here for 18 molecules.

Like-named read-outs stand apart in the source and are kept apart here.

Format in all cases: cell-based
The target in one assay is T1, M2 (Homo sapiens, UniProt P08172).
T1 sequence (P08172 1-466): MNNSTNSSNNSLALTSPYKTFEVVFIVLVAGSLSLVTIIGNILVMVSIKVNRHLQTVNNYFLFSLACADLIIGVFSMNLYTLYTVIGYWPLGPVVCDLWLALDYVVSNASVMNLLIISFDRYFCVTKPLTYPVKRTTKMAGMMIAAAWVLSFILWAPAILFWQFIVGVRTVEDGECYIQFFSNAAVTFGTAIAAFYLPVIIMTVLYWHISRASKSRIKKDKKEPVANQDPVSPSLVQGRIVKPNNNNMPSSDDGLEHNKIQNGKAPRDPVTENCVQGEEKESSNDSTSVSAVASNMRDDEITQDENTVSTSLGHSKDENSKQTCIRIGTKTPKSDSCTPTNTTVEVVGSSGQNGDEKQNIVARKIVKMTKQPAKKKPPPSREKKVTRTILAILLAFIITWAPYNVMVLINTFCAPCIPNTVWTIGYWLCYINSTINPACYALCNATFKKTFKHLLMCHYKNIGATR
As to the kind of experiment: In vitro functional assay of muscarinic acetylcholine receptor activity, M2. As to conditions: antagonist IC50 at M2; read-out: M2 IC50.

Another assay deals with M3 (Homo sapiens, UniProt P20309). As to the kind of experiment: In vitro functional assay of muscarinic acetylcholine receptor activity, M3. As to conditions: antagonist IC50 at M3; read-out: M3 IC50.
The target in the next assay is T2, human M1 receptor (Homo sapiens, UniProt P11229).
T2 sequence (P11229 1-460): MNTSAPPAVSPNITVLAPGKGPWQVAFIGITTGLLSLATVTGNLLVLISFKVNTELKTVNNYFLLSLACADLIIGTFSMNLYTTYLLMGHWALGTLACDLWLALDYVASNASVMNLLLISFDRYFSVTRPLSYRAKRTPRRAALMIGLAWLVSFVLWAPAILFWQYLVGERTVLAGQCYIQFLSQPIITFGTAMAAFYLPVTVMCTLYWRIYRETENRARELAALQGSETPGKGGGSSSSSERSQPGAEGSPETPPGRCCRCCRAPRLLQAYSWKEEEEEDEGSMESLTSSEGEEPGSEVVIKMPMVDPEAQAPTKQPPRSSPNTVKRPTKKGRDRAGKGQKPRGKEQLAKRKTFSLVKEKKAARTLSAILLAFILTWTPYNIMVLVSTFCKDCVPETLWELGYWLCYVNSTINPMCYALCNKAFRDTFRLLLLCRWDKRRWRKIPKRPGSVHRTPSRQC
As to the kind of experiment: In vitro functional assay of muscarinic acetylcholine receptor activity (aequorin calcium flux, antagonist mode vs EC80 acetylcholine), M1. The gist of the method: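 CHO-K1 cells stably co-expressing human M1 and aequorin were loaded with 5 uM coelenterazine h for 4 h at room temperature in the dark. IC50 came from the drop in luminescence.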

Where [1] appears, read: CHO-K1 cells stably expressing human M1 receptor with Aequorin, decrease in EC80 acetylcholine response, read-out: M1 IC50.

Chain of M3 (P20309 whole entry): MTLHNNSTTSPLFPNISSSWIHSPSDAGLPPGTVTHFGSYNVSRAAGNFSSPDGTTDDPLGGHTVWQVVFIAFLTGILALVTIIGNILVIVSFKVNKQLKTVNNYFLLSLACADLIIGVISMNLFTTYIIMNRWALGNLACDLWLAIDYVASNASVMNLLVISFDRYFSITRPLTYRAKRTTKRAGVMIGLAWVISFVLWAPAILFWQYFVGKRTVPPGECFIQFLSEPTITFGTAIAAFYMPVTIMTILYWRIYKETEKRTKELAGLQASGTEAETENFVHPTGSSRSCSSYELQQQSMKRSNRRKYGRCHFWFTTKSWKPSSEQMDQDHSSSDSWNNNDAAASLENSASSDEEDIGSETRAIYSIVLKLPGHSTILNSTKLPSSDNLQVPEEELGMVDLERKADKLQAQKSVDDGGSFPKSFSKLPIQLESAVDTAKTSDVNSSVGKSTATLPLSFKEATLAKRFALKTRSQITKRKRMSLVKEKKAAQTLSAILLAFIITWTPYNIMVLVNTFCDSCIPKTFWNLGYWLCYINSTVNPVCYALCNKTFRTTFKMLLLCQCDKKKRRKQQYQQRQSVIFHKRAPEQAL

As to `Cc1cc(F)cnc1N1CC(C)N(C(=O)CCS(=O)(=O)c2cccc3ncsc23)C(C)C1` (stereo not drawn) [Example 135, 3-(1,3-benzothiazole-7-sulfonyl)-1-[4-(5-fluoro-3-methylpyridin-2-yl)-2,6-dimethylpiperazin-1-yl]propan-1-one], the IC50 (in general, the concentration that gives 50% inhibition) on M2 was 0.1 to 1 µM; at M3 it was 1 to 10 µM; at human M1 receptor (setting [1]) it was under 0.1 µM.
With `O=C(CCS(=O)(=O)c1cccc2nccn12)N1CC2CCC(C1)N2c1ccc(C(F)(F)F)cn1` [Example 136, 3-{imidazo[1,2-a]pyridine-5-sulfonyl}-1-{8-[5-(trifluoromethyl)pyridin-2-yl]-3,8-diazabicyclo[3.2.1]octan-3-yl}propan-1-one], the IC50 on M2 was 1 to 10 µM; at M3 it was 1 to 10 µM; at human M1 receptor, under 0.1 µM.
On to `Nc1cc(N2CCN(C(=O)CCS(=O)(=O)c3cccc4ncsc34)CC2)c(Cl)cn1` [Example 137, 1-[4-(2-amino-5-chloropyridin-4-yl)piperazin-1-yl]-3-(1,3-benzothiazole-7-sulfonyl)propan-1-one], for which the IC50 at M2 is over 10 µM; at M3, over 10 µM; at human M1 receptor (setting [1]), 1 to 10 µM.
On to `O=C(CCS(=O)(=O)c1cccc2ncsc12)N1CCN(c2ccc(CO)cc2)CC1` [Example 138, 3-(1,3-benzothiazole-7-sulfonyl)-1-{4-[4-(hydroxymethyl)phenyl]piperazin-1-yl}propan-1-one], for which the IC50 was over 10 µM at M2, over 10 µM on M3 and 0.1 to 1 µM on human M1 receptor (setting [1]).
`O=C(CCNCc1c(F)ccc2nccn12)N1CC2CCC(C1)N2c1ccncc1F` [Example 139, 3-[({6-fluoroimidazo[1,2-a]pyridin-5-yl}methyl)amino]-1-[8-(3-fluoropyridin-4-yl)-3,8-diazabicyclo[3.2.1]octan-3-yl]propan-1-one]: the IC50 at M2 was over 10 µM; on M3 it was over 10 µM; at human M1 receptor, 0.1 to 1 µM.
With `O=C(CCS(=O)(=O)c1cccc2ncsc12)N1CC=C(c2ccc(C(F)(F)F)cn2)CC1` [Example 140, 3-(1,3-benzothiazole-7-sulfonyl)-1-[5-(trifluoromethyl)-1′,2′,3′,6′-tetrahydro-[2,4′-bipyridin]-1′-yl]propan-1-one], the IC50 at M2 was 1 to 10 µM; on M3 it was 1 to 10 µM; at human M1 receptor (setting [1]), under 0.1 µM.
Turning to `N#Cc1ccc(C2=CC3CCC(C2)N3C(=O)CCS(=O)(=O)c2cccc3ncsc23)nc1` (stereo not drawn) [Example 141, 6-{8-[3-(1,3-benzothiazole-7-sulfonyl)propanoyl]-8-azabicyclo[3.2.1]oct-2-en-3-yl}pyridine-3-carbonitrile], the IC50 at M2 was 1 to 10 µM; at M3, over 10 µM; on human M1 receptor, 0.1 to 1 µM.
For the molecule `N#Cc1ccc(C2CC3CCC(C2)N3C(=O)CCS(=O)(=O)c2cccc3ncsc23)nc1` (stereo not drawn) [Example 142, 6-{8-[3-(1,3-benzothiazole-7-sulfonyl)propanoyl]-8-azabicyclo[3.2.1]octan-3-yl}pyridine-3-carbonitrile], the values for the 50% inhibitory concentration (IC50) on M2, on M3 and at human M1 receptor (setting [1]) were 1 to 10 µM, over 10 µM and 1 to 10 µM, respectively.
With `O=C(CCS(=O)(=O)c1cccc2nccn12)N1CC2CCC(C1)N2c1ccc(Cl)cn1` [Example 143, 1-[8-(5-chloropyridin-2-yl)-3,8-diazabicyclo[3.2.1]octan-3-yl]-3-{imidazo[1,2-a]pyridine-5-sulfonyl}propan-1-one], the concentration for half-maximal inhibition (IC50) is 1 to 10 µM on M2, 1 to 10 µM on M3 and under 0.1 µM at human M1 receptor.
In the case of `Cc1cc(C#N)ncc1N1CCN(C(=O)CCS(=O)(=O)c2cccc3nccn23)[C@@H](C)C1` [Example 144, 5-[(3S)-4-(3-{imidazo[1,2-a]pyridine-5-sulfonyl}propanoyl)-3-methylpiperazin-1-yl]-4-methylpyridine-2-carbonitrile], the IC50 at M2 is over 10 µM; on M3, over 10 µM; on human M1 receptor (setting [1]) it was under 0.1 µM.
As to `N#Cc1ccc(N2C3CCC2CN(C(=O)CCS(=O)(=O)c2cccc4ncsc24)C3)cn1` [Example 146, 5-{3-[3-(1,3-benzothiazole-7-sulfonyl)propanoyl]-3,8-diazabicyclo[3.2.1]octan-8-yl}pyridine-2-carbonitrile], the IC50 was 0.1 to 1 µM at M2, 0.1 to 1 µM on M3 and under 0.1 µM on human M1 receptor.
Turning to `O=C(CCS(=O)(=O)c1cccc2ncsc12)N1CC2CCC(C1)N2c1ccc(C(F)(F)F)cn1` [Example 147, 3-(1,3-benzothiazole-7-sulfonyl)-1-{8-[5-(trifluoromethyl)pyridin-2-yl]-3,8-diazabicyclo[3.2.1]octan-3-yl}propan-1-one], the IC50 on M2, on M3 and on human M1 receptor was under 0.1 µM each time.
As for `O=C(CCNCc1cccc2ncsc12)N1CC2CCC(C1)N2c1ccc(C(F)(F)F)cn1` [Example 148, 3-{[(1,3-benzothiazol-7-yl)methyl]amino}-1-{8-[5-(trifluoromethyl)pyridin-2-yl]-3,8-diazabicyclo[3.2.1]octan-3-yl}propan-1-one], the IC50 was 1 to 10 µM at M2, 1 to 10 µM on M3 and 0.1 to 1 µM at human M1 receptor.
As to `Cn1cnc2cccc(S(=O)(=O)CCC(=O)N3CCN(c4ccc(C(F)(F)F)cn4)CC3)c21` [Example 149, 3-[(1-methyl-1H-1,3-benzodiazol-7-yl)sulfonyl]-1-{4-[5-(trifluoromethyl)pyridin-2-yl]piperazin-1-yl}propan-1-one], the IC50 was 0.1 to 1 µM at M2, 1 to 10 µM on M3 and under 0.1 µM at human M1 receptor (setting [1]).
`N#Cc1ccc(N2C3CCC2CN(C(=O)CCNCc2cccc4nsnc24)C3)nc1` [Example 150, 6-[3-(3-{[(2,1,3-benzothiadiazol-4-yl)methyl]amino}propanoyl)-3,8-diazabicyclo[3.2.1]octan-8-yl]pyridine-3-carbonitrile]: the figures for the IC50 on M2, at M3 and at human M1 receptor were 1 to 10 µM, over 10 µM and 0.1 to 1 µM, respectively.
For `Cc1cc(C#N)ncc1N1CCN(C(=O)CCNCc2c(F)ccc3nccn23)[C@@H](C)C1` [Example 151, 5-[(3S)-4-{3-[({6-fluoroimidazo[1,2-a]pyridin-5-yl}methyl)amino]propanoyl}-3-methylpiperazin-1-yl]-4-methylpyridine-2-carbonitrile], the IC50 was 1 to 10 µM at M2, over 10 µM on M3 and 1 to 10 µM on human M1 receptor (setting [1]).
For `O=C(CCNCc1c(F)ccc2nccn12)N1CC2CCC(C1)N2c1ccc(C(F)(F)F)cn1` [Example 152, 3-[({6-fluoroimidazo[1,2-a]pyridin-5-yl}methyl)amino]-1-{8-[5-(trifluoromethyl)pyridin-2-yl]-3,8-diazabicyclo[3.2.1]octan-3-yl}propan-1-one], the results for the IC50 on M2, on M3 and on human M1 receptor were 1 to 10 µM, over 10 µM and under 0.1 µM, respectively.
Regarding `Cc1cc(C(F)(F)F)ncc1N1CCN(C(=O)CCS(=O)(=O)c2cccc3ncsc23)[C@@H](C)C1` [Example 153, 3-(1,3-benzothiazole-7-sulfonyl)-1-[(2S)-2-methyl-4-[4-methyl-6-(trifluoromethyl)pyridin-3-yl]piperazin-1-yl]propan-1-one], the IC50 on M2 was 0.1 to 1 µM; on M3, 0.1 to 1 µM; at human M1 receptor (setting [1]) it was under 0.1 µM.
